From US9198918B2, “Benzoxazepin PI3K inhibitor compounds and methods of use” (Genentech, Inc., priority 2009, dated 2015)

Target: T1, PI3K alpha (p110 alpha) (Homo sapiens, UniProt P42336)
T1 construct: purchased Upstate Cell Signaling Solutions, Charlottesville, Va
Assay: PI3K p110α (alpha) binding assay (Example 901)
Conditions: for IC50: read-out: IC50, inhibition of PI3K alpha (binding to p110 alpha)
Excerpt: Determination of the PI3 kinase activity of a Formula I compound is possible by a number of direct and indirect detection methods.

T1 sequence (P42336 whole entry): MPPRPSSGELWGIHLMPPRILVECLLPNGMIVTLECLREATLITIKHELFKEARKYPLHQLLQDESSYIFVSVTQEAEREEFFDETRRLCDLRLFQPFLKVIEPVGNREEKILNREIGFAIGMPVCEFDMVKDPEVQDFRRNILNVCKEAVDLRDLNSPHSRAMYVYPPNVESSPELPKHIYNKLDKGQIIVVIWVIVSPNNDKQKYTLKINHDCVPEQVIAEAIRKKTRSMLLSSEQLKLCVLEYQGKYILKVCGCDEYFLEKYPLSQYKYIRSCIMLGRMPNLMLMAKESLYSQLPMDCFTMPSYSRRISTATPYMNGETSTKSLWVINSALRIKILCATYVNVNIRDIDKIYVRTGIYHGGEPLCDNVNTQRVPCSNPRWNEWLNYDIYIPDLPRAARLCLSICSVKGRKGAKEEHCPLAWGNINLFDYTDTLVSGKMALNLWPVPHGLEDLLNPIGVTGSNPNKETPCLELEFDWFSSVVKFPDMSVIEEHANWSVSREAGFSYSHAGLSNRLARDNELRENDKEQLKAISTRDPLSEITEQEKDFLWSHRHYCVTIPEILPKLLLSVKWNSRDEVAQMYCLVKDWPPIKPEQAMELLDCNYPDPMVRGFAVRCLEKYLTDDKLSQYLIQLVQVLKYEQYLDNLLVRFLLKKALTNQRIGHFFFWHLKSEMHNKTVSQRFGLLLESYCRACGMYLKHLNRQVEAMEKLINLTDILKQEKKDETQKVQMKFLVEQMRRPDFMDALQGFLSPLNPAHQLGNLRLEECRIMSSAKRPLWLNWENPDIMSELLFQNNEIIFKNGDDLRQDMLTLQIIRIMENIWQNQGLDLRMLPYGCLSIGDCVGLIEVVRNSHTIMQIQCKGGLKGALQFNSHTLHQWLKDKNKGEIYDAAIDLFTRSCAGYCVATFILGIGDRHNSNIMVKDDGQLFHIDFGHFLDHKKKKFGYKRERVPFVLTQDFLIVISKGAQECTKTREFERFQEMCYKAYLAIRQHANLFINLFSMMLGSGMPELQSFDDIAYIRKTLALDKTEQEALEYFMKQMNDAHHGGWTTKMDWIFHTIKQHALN
T1 sequence (P27986 whole entry partner): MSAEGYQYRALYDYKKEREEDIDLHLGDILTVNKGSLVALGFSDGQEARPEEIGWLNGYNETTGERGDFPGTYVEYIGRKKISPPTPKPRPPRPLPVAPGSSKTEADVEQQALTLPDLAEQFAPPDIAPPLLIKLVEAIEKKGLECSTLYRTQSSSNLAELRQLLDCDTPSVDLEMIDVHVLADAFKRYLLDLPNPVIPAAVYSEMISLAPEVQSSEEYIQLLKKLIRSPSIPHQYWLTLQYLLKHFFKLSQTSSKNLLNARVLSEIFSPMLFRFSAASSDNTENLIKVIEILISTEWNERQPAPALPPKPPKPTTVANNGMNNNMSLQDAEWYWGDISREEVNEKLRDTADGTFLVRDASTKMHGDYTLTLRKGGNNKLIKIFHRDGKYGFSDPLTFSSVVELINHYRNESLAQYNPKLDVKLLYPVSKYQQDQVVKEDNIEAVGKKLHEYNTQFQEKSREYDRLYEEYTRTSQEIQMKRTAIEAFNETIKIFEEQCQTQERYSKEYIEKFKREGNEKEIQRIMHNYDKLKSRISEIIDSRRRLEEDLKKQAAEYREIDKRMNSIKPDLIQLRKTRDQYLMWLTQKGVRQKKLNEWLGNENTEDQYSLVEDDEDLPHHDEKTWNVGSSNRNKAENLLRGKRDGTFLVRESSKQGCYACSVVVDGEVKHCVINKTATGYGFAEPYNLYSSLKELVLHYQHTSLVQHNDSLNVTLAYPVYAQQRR

| IC50 [nM] | Ki (read-out: Ki, inhibition of PI3K alpha (binding to p110 alpha)) [nM] | Structure (SMILES) |
| --- | --- | --- |
| 58 | – | Fc1ccc(-n2ncnc2-n2cc3c(n2)-c2ccc(Br)cc2OCC3)c(F)c1 [compound 103, 2-(1-(2,4-difluorophenyl)-1H-1,2,4-triazol-5-yl)-8-bromo-4,5-dihydrobenzo-2H-oxepino[4,5-d]pyrazole] |
| 0.66 | – | CS(=O)(=O)CCN1CC(c2ccc3c(c2)OCCc2cn(-c4ncnn4-c4ccc(F)cc4F)nc2-3)C1 [compound 171, 2-(1-(2,4-difluorophenyl)-1H-1,2,4-triazol-5-yl)-8-(1-(2-(methylsulfonyl)ethyl)azetidin-3-yl)-4,5-dihydrobenzo-2H-oxepino[4,5-d]pyrazole] |
| 0.37 | – | CNC(=O)C(C)(C)N1CCC(c2ccc3c(c2)OCCn2cc(-c4ncnn4C(C)C)nc2-3)CC1 [compound 248, 2-(4-(2-(1-isopropyl-1H-1,2,4-triazol-5-yl)-5,6-dihydrobenzo[f]imidazo[1,2-d][1,4]oxazepin-9-yl)piperidin-1-yl)-N,2-dimethylpropanamide] |
| 3 | – | NC(=O)c1ccc2c(c1)-c1nc(-c3ncnn3-c3ccccc3Cl)cn1CCO2 [compound 102, 2-(1-(2-chlorophenyl)-1H-1,2,4-triazol-5-yl)-5,6-dihydrobenzo[f]imidazo[1,2-d][1,4]oxazepine-10-carboxamide] |
| – | 2.1 | Cc1nc(-c2cn3c(n2)-c2ccc(OC4COC4)cc2OCC3)n(C(C)C)n1 [compound 520, 2-(1-isopropyl-3-methyl-1H-1,2,4-triazol-5-yl)-9-(oxetan-3-yloxy)-5,6-dihydrobenzo[f]imidazo[1,2-d][1,4]oxazepine] |
| 770 | – | CN(C(=O)c1cc2n(n1)-c1ccccc1OCC2)c1ccc(F)cc1F [compound 101, N-(2,4-difluorophenyl)-N-methyl-4,5-dihydrobenzo[b]pyrazolo[1,5-d][1,4]oxazepine-2-carboxamide] |
| 2 | – | CC(C)NC(=O)CN1CC(c2ccc3c(c2)OCCn2cc(-c4ncnn4C(C)C)nc2-3)C1 [compound 200, N-isopropyl-2-(3-(2-(1-isopropyl-1H-1,2,4-triazol-5-yl)-5,6-dihydrobenzo[f]imidazo[1,2-d][1,4]oxazepin-9-yl)azetidin-1-yl)acetamide] |
| 0.91 | – | Clc1ccccc1-n1ncnc1-n1cc2c(n1)-c1cc(C3CCNCC3)ccc1OCC2 [compound 154, 2-(1-(2-chlorophenyl)-1H-1,2,4-triazol-5-yl)-9-piperid-4-yl-4,5-dihydrobenzo-2H-oxepino[4,5-d]pyrazole] |
| 0.32 | – | CC(C)n1ncnc1-c1cn2c(n1)-c1cnc(N3CCC[C@H]3C(N)=O)cc1OCC2 [compound 338, (2S)-1-(2-(1-isopropyl-1H-1,2,4-triazol-5-yl)-5,6-dihydroimidazo[1,2-d]pyrido[3,4-f][1,4]oxazepin-9-yl)pyrrolidine-2-carboxamide] |
| 1.4 | – | Cc1nc(-c2cn3c(n2)-c2ccc(-c4cnn(C(C)(C)C(=O)O)c4)cc2OCC3)n(C(C)C)n1 [compound 251, 2-(4-(2-(1-isopropyl-3-methyl-1H-1,2,4-triazol-5-yl)-5,6-dihydrobenzo[f]imidazo[1,2-d][1,4]oxazepin-9-yl)-1H-pyrazol-1-yl)-2-methylpropanoic acid] |
| 4.4 | – | CC(C)n1nc(N)nc1-c1cn2c(n1)-c1ccc(F)cc1OCC2 [compound 253, 5-(9-fluoro-5,6-dihydrobenzo[f]imidazo[1,2-d][1,4]oxazepin-2-yl)-1-isopropyl-1H-1,2,4-triazol-3-amine] |
| 22 | – | CC(C)n1ncnc1-c1cc2n(n1)-c1cc(C3CN(C(C)(C)CO)C3)ccc1OCC2 [compound 170, 2-(3-(2-(1-isopropyl-1H-1,2,4-triazol-5-yl)-4,5-dihydrobenzo[b]pyrazolo[1,5-d][1,4]oxazepin-9-yl)azetidin-1-yl)-2-methylpropan-1-ol] |
